# Data: patent US20090123907A1 (priority 2004, published 2009)
# Columns and labels:
# plasma proteins = assay: Protein resistance to room temperature aging; conditions: Na citrate 0.4%, lysine citrate 2%
# Source text: […]. In many cases heat treatments have been used to reduce or eliminated infectious agents from blood products. A problem with such an approach has been heat induced changes in the antigenicity of certain blood components. […]. A continuation of this experiment was set up to check also long term room temperature stability. It is generally believed that resistance to heat is an indicator of room temperature stability. That is the justification for estimating long term stability of products by using “accelerated” stability tests based on storage at an elevated temperature. In the presented experiment it is important to note that different plasma sample were used for the two different anticoagulants because a single sample was not large enough to provide sufficient volume for all of the tests over the life of the extended experiment.
# It was anticipated that protection against damage due to elevated temperature would also provide greater stability at room temperature. It will be appreciated that the need to rapidly freeze plasma to ensure stability and the need to freeze or refrigerate plasma for transport greatly complicates the use of plasma under situations of war or emergency or in developing countries where refrigeration may not be readily available. […] […]. […] […]. Although great effort is taken to ensure sterility of the plasma, any blood product procured by means of venipuncture may become contaminated by skin bacteria. […] […]. Those proteins that do lose activity decrease only slightly as compared to much more dramatic decreases in sodium citrate storage.
# platelets = assay: Platelet preservation in platelet rich plasma with 1% citrate (lysine citrate); format: cell-based; conditions: PRP 1% citrate, room temperature
# Protocol: In the experiment anticoagulated blood (0.4% citrate by weight) was centrifuged to produce platelet Rich Plasma (PRP). To test samples of PRP citric acid stock solution containing sufficient lysine to bring the solution pH to 7.0 was added to increase the citrate concentration to 1% by weight. Following this addition the pH of the mixture was 6.7. It will be apparent to one of skill in the art that the precise ratio of basic amino acid to citrate can be altered to adjust the pH of the either the stock solution or the final blood mixture. One sample of original PRP was used as the Normal Control, and one sample of the lysine citrate PRP was used as the Citrate Control. One sample of original PRP was inoculated with cultured Staphylococcus epidermidis to a final concentration of about 10 cfu/ml—this formed the Spiked Normal. […] The samples were incubated at room temperature for five days. Each day the number of platelets in each sample was counted; each sample was also tested for LDH (lactate dehydrogenase) and for the ability to induce a clot. Following the tests an aliquot of each sample was subcultured on nutrient agar and incubated under growth conditions.
# red blood cells = assay: Red blood cell integrity during storage at 4° C.; format: cell-based; design: MCV Day 20 / MCV Day 33: unit not given here; conditions: for RBC Day 1: whole blood; for MCV Day 20 / MCV Day 33: whole blood stored at 4° C.
# Protocol: In this experiment whole blood (an aliquot of which clotted within 10 minutes without anticoagulant) was modified by adding a number of different anticoagulant compositions. Sodium citrate was used as an anticoagulant at 0.65%, 0.75% and 0.9% by weight. These are all higher citrate levels than the usual 0.4% by weight. Amino acid citrates (lysine or arginine) were used at 0.65%, 0.75% and 0.9% by weight based on the weight of the citric acid. The amino acid counterion was used in sufficient quantity to adjust the pH as explained above.
# To judge red cell condition the blood was counted and various other measurements were taken initially and after 20 and 33 days of storage at 4° C. Apparent initial/differences in RBC counts are due to dilution caused by adding extra anticoagulant. Mean cell volume (MCV) is a red cell index that is a useful measure of red cell health. […] It is believed that a citrate level of at least about 1.0% by weight (i.e., more than two times the usual amount) is necessary to ensure against all activation of plasma proteins. […] On the other hand, amino acid citrates, which are very effective anticoagulants, are also effective at preventing red cell damage.
# [1] = Day 1, spiked with Staphylococcus epidermidis about 10 cfu/ml
# [2] = Day 2, spiked with Staphylococcus epidermidis about 10 cfu/ml
# [3] = Day 3, spiked with Staphylococcus epidermidis about 10 cfu/ml
# [4] = Day 4, spiked with Staphylococcus epidermidis about 10 cfu/ml
# [5] = Day 5, spiked with Staphylococcus epidermidis about 10 cfu/ml
smiles,measurement,setting,value
"NCCCC[C@H](N)C(=O)O.O=C(O)CC(O)(CC(=O)O)C(=O)O [Lysine Citrate, lysine citrate]",Alk. Phos,plasma proteins; 0 days at room temperature,23 IU/.L
same,LDH,plasma proteins; 0 days at room temperature,97 IU/L
same,SGOT,plasma proteins; 0 days at room temperature,10 IU/L
same,SGPT,plasma proteins; 0 days at room temperature,20 IU/L
same,fIX,plasma proteins; 0 days at room temperature,99%
same,fV,plasma proteins; 0 days at room temperature,97%
same,fVIII,plasma proteins; 0 days at room temperature,102%
same,fibrinogen,plasma proteins; 0 days at room temperature,198 mg/dL
same,Alk. Phos,plasma proteins; 7 days at room temperature,23 IU/.L
same,LDH,plasma proteins; 7 days at room temperature,97 IU/L
same,SGOT,plasma proteins; 7 days at room temperature,10 IU/L
same,SGPT,plasma proteins; 7 days at room temperature,20 IU/L
same,fIX,plasma proteins; 7 days at room temperature,100%
same,fV,plasma proteins; 7 days at room temperature,95%
same,fVIII,plasma proteins; 7 days at room temperature,100%
same,fibrinogen,plasma proteins; 7 days at room temperature,198 mg/dL
same,Alk. Phos,plasma proteins; 14 days at room temperature,22 IU/.L
same,LDH,plasma proteins; 14 days at room temperature,98 IU/L
same,SGOT,plasma proteins; 14 days at room temperature,11 IU/L
same,SGPT,plasma proteins; 14 days at room temperature,20 IU/L
same,fIX,plasma proteins; 14 days at room temperature,95%
same,fV,plasma proteins; 14 days at room temperature,92%
same,fVIII,plasma proteins; 14 days at room temperature,97%
same,fibrinogen,plasma proteins; 14 days at room temperature,196 mg/dL
same,Alk. Phos,plasma proteins; 21 days at room temperature,23 IU/.L
same,LDH,plasma proteins; 21 days at room temperature,98 IU/L
same,SGOT,plasma proteins; 21 days at room temperature,10 IU/L
same,SGPT,plasma proteins; 21 days at room temperature,18 IU/L
same,fIX,plasma proteins; 21 days at room temperature,89%
same,fV,plasma proteins; 21 days at room temperature,88%
same,fVIII,plasma proteins; 21 days at room temperature,96%
same,fibrinogen,plasma proteins; 21 days at room temperature,196 mg/dL
same,Clot time,platelets; [1],29 s
same,Count (platelets),platelets; [1],2.99 × 10^5 per μl
same,LDH,platelets; [1],131 IU/L
same,Clot time,"platelets; Day 1, unspiked",35 s
same,Count (platelets),"platelets; Day 1, unspiked",3.2 × 10^5 per μl
same,LDH,"platelets; Day 1, unspiked",133 IU/L
same,Clot time,platelets; [2],32 s
same,Count (platelets),platelets; [2],3.0 × 10^5 per μl
same,LDH,platelets; [2],130 IU/L
same,Clot time,"platelets; Day 2, unspiked",30 s
same,Count (platelets),"platelets; Day 2, unspiked",3.1 × 10^5 per μl
same,LDH,"platelets; Day 2, unspiked",133 IU/L
same,Clot time,platelets; [3],30 s
same,Count (platelets),platelets; [3],3.0 × 10^5 per μl
same,LDH,platelets; [3],133 IU/L
same,Clot time,"platelets; Day 3, unspiked",32 s
same,Count (platelets),"platelets; Day 3, unspiked",3.3 × 10^5 per μl
same,LDH,"platelets; Day 3, unspiked",134 IU/L
same,Clot time,platelets; [4],30 s
same,Count (platelets),platelets; [4],3.2 × 10^5 per μl
same,LDH,platelets; [4],131 IU/L
same,Clot time,"platelets; Day 4, unspiked",35 s
same,Count (platelets),"platelets; Day 4, unspiked",3.5 × 10^5 per μl
same,LDH,"platelets; Day 4, unspiked",133 IU/L
same,Clotting time,platelets; [5],32 s
same,Count (platelets),platelets; [5],3.0 × 10^5 per μl
same,LDH,platelets; [5],131 IU/L
same,Clotting time,"platelets; Day 5, unspiked",33 s
same,Count (platelets),"platelets; Day 5, unspiked",3.1 × 10^5 per μl
same,LDH,"platelets; Day 5, unspiked",135 IU/L
same,RBC Day 1,red blood cells; anticoagulant 0.65 wgt %,5.37 10^6/μl
same,MCV Day 20,red blood cells; anticoagulant 0.65 wgt %,93.0
same,MCV Day 33,red blood cells; anticoagulant 0.65 wgt %,93.8
same,RBC Day 1,red blood cells; anticoagulant 0.75 wgt %,6.78 10^6/μl
same,MCV Day 20,red blood cells; anticoagulant 0.75 wgt %,92.7
same,MCV Day 33,red blood cells; anticoagulant 0.75 wgt %,92.7
same,RBC Day 1,red blood cells; anticoagulant 0.90 wgt %,5.82 10^6/μl
same,MCV Day 20,red blood cells; anticoagulant 0.90 wgt %,92.2
same,MCV Day 33,red blood cells; anticoagulant 0.90 wgt %,92.9
"O=C([O-])CC(O)(CC(=O)[O-])C(=O)[O-].[Na+].[Na+].[Na+] [Na Citrate, sodium citrate, reference compound]",Alk. Phos,plasma proteins; 0 days at room temperature,30 IU/.L
same,LDH,plasma proteins; 0 days at room temperature,110 IU/L
same,SGOT,plasma proteins; 0 days at room temperature,18 IU/L
same,SGPT,plasma proteins; 0 days at room temperature,32 IU/L
same,fIX,plasma proteins; 0 days at room temperature,104%
same,fV,plasma proteins; 0 days at room temperature,98%
same,fVIII,plasma proteins; 0 days at room temperature,109%
same,fibrinogen,plasma proteins; 0 days at room temperature,206 mg/dL
same,Alk. Phos,plasma proteins; 7 days at room temperature,29 IU/.L
same,LDH,plasma proteins; 7 days at room temperature,111 IU/L
same,SGOT,plasma proteins; 7 days at room temperature,18 IU/L
same,SGPT,plasma proteins; 7 days at room temperature,30 IU/L
same,fIX,plasma proteins; 7 days at room temperature,107%
same,fV,plasma proteins; 7 days at room temperature,102%
same,fVIII,plasma proteins; 7 days at room temperature,100%
same,fibrinogen,plasma proteins; 7 days at room temperature,181 mg/dL
same,Alk. Phos,plasma proteins; 14 days at room temperature,31 IU/.L
same,LDH,plasma proteins; 14 days at room temperature,108 IU/L
same,SGOT,plasma proteins; 14 days at room temperature,15 IU/L
same,SGPT,plasma proteins; 14 days at room temperature,26 IU/L
same,fIX,plasma proteins; 14 days at room temperature,93%
same,fV,plasma proteins; 14 days at room temperature,102%
same,fVIII,plasma proteins; 14 days at room temperature,92%
same,fibrinogen,plasma proteins; 14 days at room temperature,173 mg/dL
same,Alk. Phos,plasma proteins; 21 days at room temperature,28 IU/.L
same,LDH,plasma proteins; 21 days at room temperature,103 IU/L
same,SGOT,plasma proteins; 21 days at room temperature,12 IU/L
same,SGPT,plasma proteins; 21 days at room temperature,20 IU/L
same,fIX,plasma proteins; 21 days at room temperature,56%
same,fV,plasma proteins; 21 days at room temperature,44%
same,fVIII,plasma proteins; 21 days at room temperature,78%
same,fibrinogen,plasma proteins; 21 days at room temperature,167 mg/dL
same,RBC Day 1,red blood cells; anticoagulant 0.65 wgt %,5.43 10^6/μl
same,MCV Day 20,red blood cells; anticoagulant 0.65 wgt %,97.1
same,MCV Day 33,red blood cells; anticoagulant 0.65 wgt %,94.3
same,RBC Day 1,red blood cells; anticoagulant 0.75 wgt %,5.86 10^6/μl
same,MCV Day 20,red blood cells; anticoagulant 0.75 wgt %,98.7
same,MCV Day 33,red blood cells; anticoagulant 0.75 wgt %,103.2
same,RBC Day 1,red blood cells; anticoagulant 0.90 wgt %,6.07 10^6/μl
same,MCV Day 20,red blood cells; anticoagulant 0.90 wgt %,97.8
same,MCV Day 33,red blood cells; anticoagulant 0.90 wgt %,103.3
